Consider 32 compounds from publication PMC7587356, “High-Throughput Screening for Inhibitors of the SARS-CoV-2 Protease Using a FRET-Biosensor” (Molecules, 2020).

Structures can show the parent of a compound that is named as a salt. Where two headings read alike, the source gives them in different places.

The test addresses SARS-CoV-2 3CLpro (Severe acute respiratory syndrome coronavirus 2, UniProt P0DTD1). In words: biochemical. The format is biochemical. The arrangement: Replicate_1 / Replicate_2 / mean / mean (LOPAC_screen_w_protease): unit not given here. The conditions noted are these: for inhibition at 5 µM: 4 h.
Setting [1] is: LOPAC1280 primary screen with protease, 5 µM compound, mean of two replicates.
The mark [2] stands for this setting: LOPAC1280 primary screen with protease, 5 µM compound, replicate 1.
Where [3] appears, read: LOPAC1280 primary screen with protease, 5 µM compound, replicate 2.
Setting [4] is: LOPAC1280 primary screen with protease, 5 µM compound, replicate 1, read-out: Replicate_1 (LOPAC_screen_w_protease).
Where [5] appears, read: LOPAC1280 primary screen with protease, 5 µM compound, replicate 2, read-out: Replicate_2 (LOPAC_screen_w_protease).
Where [6] appears, read: sheet LOPAC_screen_w_protease, LOPAC1280 primary screen at 5 µM, with protease, mean of the two replicates, read-out: mean.
Setting [7] is: sheet LOPAC_screen_w_protease, LOPAC1280 primary screen at 5 µM, with protease, replicate 1, read-out: Replicate_1.
Where [8] appears, read: sheet LOPAC_screen_w_protease, LOPAC1280 primary screen at 5 µM, with protease, replicate 2, read-out: Replicate_2.
[9] abbreviates: sheet LOPAC_screen_w_protease, primary screen with protease, mean of two replicates.
Setting [10] is: sheet LOPAC_screen_w_protease, primary screen with protease, replicate 1.
The mark [11] stands for this setting: sheet LOPAC_screen_w_protease, primary screen with protease, replicate 2.
Where [12] appears, read: sheet LOPAC_screen_w_protease, LOPAC1280 primary screen at 5 µM, with protease, mean of the two replicates.
Setting [13] is: sheet LOPAC_screen_w_protease, LOPAC1280 primary screen at 5 µM, with protease, replicate 1.
Setting [14] is: sheet LOPAC_screen_w_protease, LOPAC1280 primary screen at 5 µM, with protease, replicate 2.
Setting [15] is: LOPAC1280 primary screen with protease, 5 µM compound, mean of the two replicates.
[16] abbreviates: sheet LOPAC_screen_w_protease, LOPAC1280 at 5 µM, mean of two replicates, read-out: mean.
Setting [17] is: sheet LOPAC_screen_w_protease, LOPAC1280 at 5 µM, replicate 1, read-out: Replicate_1.
Where [18] appears, read: sheet LOPAC_screen_w_protease, LOPAC1280 at 5 µM, replicate 2, read-out: Replicate_2.
The mark [19] stands for this setting: sheet LOPAC_screen_w_protease, LOPAC1280 primary screen with protease, 5 µM compound, mean of the two replicates, read-out: mean.
The mark [20] stands for this setting: sheet LOPAC_screen_w_protease, LOPAC1280 primary screen with protease, 5 µM compound, replicate 1, read-out: Replicate_1.
[21] abbreviates: sheet LOPAC_screen_w_protease, LOPAC1280 primary screen with protease, 5 µM compound, replicate 2, read-out: Replicate_2.
The mark [22] stands for this setting: sheet LOPAC_screen_w_protease, LOPAC1280 at 5 µM, mean of two replicates.
Setting [23] is: sheet LOPAC_screen_w_protease, LOPAC1280 at 5 µM, replicate 1.
Setting [24] is: sheet LOPAC_screen_w_protease, LOPAC1280 at 5 µM, replicate 2.

On to `Cl.N[C@@H](CCC(=O)O)C(=O)O` [L-Glutamic acid hydrochloride], for which the “mean (LOPAC_screen_w_protease)” value under setting [1] came to 1.56. Moreover, the “Replicate_1 (LOPAC_screen_w_protease)” value under setting [2] was 1.529. Also, the “Replicate_2 (LOPAC_screen_w_protease)” value under setting [3] worked out at 1.59.
Regarding `CC(C)C(=O)c1c(C(C)C)nn2ccccc12` [Ibudilast], the inhibition at 5 µM is 1.64% under setting [4] and 1.76% under setting [5]. In addition, the “mean (LOPAC_screen_w_protease)” value under setting [1] was 1.697.
Take `CNC(=O)[C@H]1O[C@@H](n2cnc3c(NCc4cccc(I)c4)ncnc32)[C@H](O)[C@@H]1O` [IB-MECA]: the inhibition at 5 µM (sheet LOPAC_screen_w_protease, primary screen with protease, mean of two replicates, read-out: mean) came out at 2.39%; the inhibition at 5 µM (sheet LOPAC_screen_w_protease, primary screen with protease, replicate 1, read-out: Replicate_1) amounted to 2.72%; the inhibition at 5 µM (sheet LOPAC_screen_w_protease, primary screen with protease, replicate 2, read-out: Replicate_2) is 2.06%.
With `Nc1nc(O)c2ncn(COC(CO)CO)c2n1` [Ganciclovir], the inhibition at 5 µM reads like this: under setting [6], 0.74%; under setting [7], 1%; under setting [8], 0.479%.
Under setting [9], `Cc1nc2c(OCc3ccccc3)cccn2c1CC#N` [SCH-28080] returned a mean of 2.443. Under setting [10], this compound came in with a Replicate_1 of 2.6463. The Replicate_2 under setting [11] is given as 2.24.
With `Br.Br.N=C(N)SCCc1ccc(CCSC(=N)N)cc1` [1,4-PBIT dihydrobromide], the mean under setting [12] is on record as 0.7618. For the same compound, the Replicate_1 under setting [13] came to 0.8182. The same compound displayed a Replicate_2 under setting [14] of 0.7055.
For `CCCN(CCC)CCc1c[nH]c2ccc(C(N)=O)cc12.O=C(O)/C=C\C(=O)O`, for the setting “sheet LOPAC_screen_w_protease, primary screen of LOPAC1280 at 5 µM with protease, mean of the two replicates”, the mean turned out to be 3.512. This compound returned a Replicate_1 (sheet LOPAC_screen_w_protease, primary screen of LOPAC1280 at 5 µM with protease, replicate 1) of 3.371. The Replicate_2 (sheet LOPAC_screen_w_protease, primary screen of LOPAC1280 at 5 µM with protease, replicate 2) was found to be 3.653.
For the compound `Cl.Cl.NCCC(=O)NCCc1c[nH]cn1` [Carcinine dihydrochloride], the “mean (LOPAC_screen_w_protease)” value under setting [1] is reported as 1.47. For the same compound, under setting [2], the “Replicate_1 (LOPAC_screen_w_protease)” value was -0.04434. Further, the “Replicate_2 (LOPAC_screen_w_protease)” value under setting [3] was determined as 2.985.
In the case of `C/C(O)=C(\C#N)C(=O)Nc1cc(Br)ccc1Br` [LFM-A13], under setting [1], the “mean (LOPAC_screen_w_protease)” value is reported as 1.507. Also, the “Replicate_1 (LOPAC_screen_w_protease)” value under setting [2] is recorded as -0.001982. In addition, the “Replicate_2 (LOPAC_screen_w_protease)” value under setting [3] is given as 3.017.
As for `NCCS(=O)(=O)O` [Taurine], the inhibition at 5 µM under setting [4] was determined as 2.66% and the inhibition at 5 µM under setting [5] is 1.18%. The “mean (LOPAC_screen_w_protease)” value under setting [15] is recorded as 1.917.
With `C=C(C)[C@H]1Cc2c(ccc3c2O[C@@H]2COc4cc(OC)c(OC)cc4[C@@H]2C3=O)O1` [Rotenone], the inhibition at 5 µM runs as follows: under setting [6], 0.71%; under setting [7], 2.43%; under setting [8], -1.01%.
Turning to `C[C@]12CCC(=O)C=C1CC[C@@H]1[C@@H]2CC[C@@]2(C)[C@H]1CC[C@]2(O)C(=O)CO` [Cortexolone], the inhibition at 5 µM is, setting by setting: under setting [16], 1.01%; under setting [17], 2.17%; under setting [18], -0.141%.
On to `N#CC(C#N)=C(N)/C(C#N)=C/c1ccc(O)cc1` [Tyrphostin AG 112], for which the mean under setting [9] was determined as 2.497. For the same compound, under setting [10], the Replicate_1 is given as 2.949. Further, the Replicate_2 under setting [11] is listed as 2.046.
On to `CCCc1c(OCCCOc2ccc(OCC(=O)O)cc2)ccc(C(C)=O)c1O` [L-165,041], for which the “mean (LOPAC screen with protease)” value (sheet LOPAC_screen_w_protease, primary screen at 5 µM, mean of two replicates) was 13.6599. Further, where the note is “sheet LOPAC_screen_w_protease, primary screen at 5 µM, replicate 1”, the “Replicate_1 (LOPAC screen with protease)” value is 14.4944. Besides, the “Replicate_2 (LOPAC screen with protease)” value (sheet LOPAC_screen_w_protease, primary screen at 5 µM, replicate 2) stood at 12.8255.
For `CNC1(C)C2CCC(C2)C1(C)C` (stereo not drawn) [Mecamylamine hydrochloride], the inhibition at 5 µM under setting [19] stood at 4.7%, the inhibition at 5 µM under setting [20] amounted to 5.3% and the inhibition at 5 µM under setting [21] came to 4.09%.
As to `NCC(CP(=O)(O)O)c1ccc(Cl)cc1` (stereo not drawn) [Phaclofen], the mean under setting [22] is listed as 1.154. This compound came in with a Replicate_1 under setting [23] of -0.2982. The compound further showed a Replicate_2 under setting [24] of 2.606.
With `S=C=Nc1cccc(C2(N3CCCCC3)CCCCC2)c1` [Metaphit methanesulfonate], the inhibition at 5 µM worked out at 5.96% under setting [19], 6.38% under setting [20] and 5.54% under setting [21].
In the case of `CCC1(C2=NCCN2)Cc2ccccc2O1` (stereo not drawn) [Efaroxan hydrochloride], the inhibition at 5 µM runs as follows: under setting [6], 0.692%; under setting [7], 2.34%; under setting [8], -0.954%.
Turning to `O=C(O)C1CCCNC1` (racemic) [(±)-Nipecotic acid], the mean under setting [12] came to 0.4335. The Replicate_1 under setting [13] was determined as 0.981. The Replicate_2 under setting [14] is -0.114.
On to `O=C(O)c1cc([N+](=O)[O-])ccc1NCCCc1ccccc1`, for which the “Replicate_1 (LOPAC screen with protease)” value is recorded as 5.784, the “Replicate_2 (LOPAC screen with protease)” value stood at 7.243 and the “mean (LOPAC screen with protease)” value is recorded as 6.5136.
For the compound `Cl.O=C(O)C1=CCCN(CCON=C(c2ccccc2)c2ccccc2)C1` [NO-711 hydrochloride], the Replicate_1 is recorded as 1.057, the Replicate_2 was -0.5134 and the mean amounted to 0.272.
Take `O=C1CCC(N2C(=O)c3ccccc3C2=O)C(=O)N1` (racemic) [(±)-Thalidomide]: under setting [22], the mean is on record as 1.21. Besides, under setting [23], the Replicate_1 was determined as 0.4169. The Replicate_2 under setting [24] was found to be 2.003.
Regarding `Cc1nccc2c1[nH]c1ccccc12` [Harmane], the inhibition at 5 µM under setting [16] was 1.1%, the inhibition at 5 µM under setting [17] is 2.71% and the inhibition at 5 µM under setting [18] is -0.5%.
`COC(=O)C1=C(C)NC(C)=C(C(=O)OCCN(C)Cc2ccccc2)C1c1cccc([N+](=O)[O-])c1` (stereo not drawn) [Nicardipine hydrochloride]: the inhibition at 5 µM is 2.73% (sheet LOPAC_screen_w_protease, primary screen with protease, compound at 5 µM, mean of two replicates, read-out: mean); 2.03% (sheet LOPAC_screen_w_protease, primary screen with protease, compound at 5 µM, replicate 1, read-out: Replicate_1); 3.42% (sheet LOPAC_screen_w_protease, primary screen with protease, compound at 5 µM, replicate 2, read-out: Replicate_2).
Consider `CC(N)C(=O)OC(C)(C)Cc1ccc(Cl)cc1` (stereo not drawn) [Alaproclate hydrochloride], for which the inhibition at 5 µM (sheet LOPAC_screen_w_protease, primary screen of LOPAC1280 at 5 µM with protease, mean of the two replicates, read-out: mean) turned out to be 3.56%; the inhibition at 5 µM (sheet LOPAC_screen_w_protease, primary screen of LOPAC1280 at 5 µM with protease, replicate 1, read-out: Replicate_1) worked out at 2.81%; the inhibition at 5 µM (sheet LOPAC_screen_w_protease, primary screen of LOPAC1280 at 5 µM with protease, replicate 2, read-out: Replicate_2) came to 4.3%.
Turning to `CN(C)CCC(c1ccc(Cl)cc1)c1ccccn1.O=C(O)/C=C\C(=O)O` (racemic) [(±)-Chlorpheniramine maleate], the Replicate_1 was determined as 0.5322, the Replicate_2 is listed as -0.472 and the mean is on record as 0.03007.
In the case of `N=C(N)NCCC[C@H](N)C(=O)O` [L-Arginine], the inhibition at 5 µM is, setting by setting: under setting [6], 0.787%; under setting [7], 3.1%; under setting [8], -1.52%.
For `CC(CCc1ccc(O)cc1)NCCc1ccc(O)c(O)c1` (stereo not drawn) [Dobutamine hydrochloride], the inhibition at 5 µM by setting is: under setting [4], 2.05%; under setting [5], 2.06%. Besides, the “mean (LOPAC_screen_w_protease)” value under setting [15] amounted to 2.053.
The compound `Cl.Cl.c1ccc(CCCN2CCN(CCOC(c3ccccc3)c3ccccc3)CC2)cc1` [GBR-12935 dihydrochloride] returned a mean under setting [22] of 0.9925. Besides, the Replicate_1 under setting [23] is 2.277. This compound also returned a Replicate_2 under setting [24] of -0.2925.
As for `CCCN1CCC[C@H](c2cccc(O)c2)C1.Cl` [R(+)-3PPP hydrochloride], the mean under setting [22] turned out to be 0.9121. The same compound came in with a Replicate_1 under setting [23] of 1.657. Also, the Replicate_2 under setting [24] is on record as 0.167.
`N#Cc1cc2nc([O-])c([O-])nc2cc1[N+](=O)[O-].[Na+].[Na+]` [CNQX disodium]: the mean under setting [12] is given as 0.7558. Further, the Replicate_1 under setting [13] is reported as 2.8399. The same compound yielded a Replicate_2 under setting [14] of -1.328.
As to `Clc1cnc(Oc2ccc(Oc3ncc(Cl)cc3Cl)cc2)c(Cl)c1` [TCPOBOP], the mean under setting [9] worked out at 2.32. Under setting [10], the Replicate_1 is on record as 5.456. Also, the Replicate_2 under setting [11] is reported as -0.8151.
